Consider 10 molecules from patent US9896482B2, “Beta hairpin peptides having antiviral properties against Dengue virus” (CENTRO DE INGENIERÍA GENÉTICA Y BIOTECNOLOGÍA, priority 2014, dated 2018).

Where a SMILES comes first, the peptide text is derived from it. Bridges are numbered along the chain shown (N, C = ends). [ ]: non-standard residue; d: D form.

For data set [1], the system named is DENV serotype 2 (NIBSC code S16803). Nature of the data set: Plaque reduction assay in Vero cells, DENV2. It is filed as cell-based, Dengue virus. To be noted: DENV2, plaque reduction; NA = no detectable activity at concentrations lower than or equal to 100 μM; read-out: IC50, antiviral activity in Vero cells (50% inhibitory activity). On the procedure: The cells were grown in 24 well plates until the monolayer reached approximately 90% confluence, after which they were washed twice with MEM medium without Fetal Bovine Serum (FBS). Then, peptide dilutions were added and the cell-peptide mixtures were incubated typically for 1 hour at 37° C., followed by the addition of a DENV serotype 2 preparation (NIBSC code S16803) at a multiplicity of infection (m.o.i.) of 0.001. The cells were then incubated for 1 hour at 37° C., and once the period of incubation with the viral inoculum concluded, were washed again to remove unbound virions and incubated for 5 days at 37° C. in high density medium (MEM supplemented with non-essential amino acids, 1% FBS, 1% carboxymethylcellulose) in order to let viral plaques form. Afterwards, the cells were stained with 0.1% Naphtol Blue Black in 0.15 M sodium acetate. Two replicates per experimental point were used in each assay, and three independent determinations were performed for each sample.
Next, it was decided to compare the antiviral activity of peptides PHB4 and HDIII3CL against all four DENV serotypes, with the objective of comparing their respective IC50 values. This comparison was performed with plaque reduction assays on Vero cells, adding the viral inoculum for each serotype (DENV1, NIBSC code West Pac 74, DENV2, NIBSC, code S16803; DENV3, NIBSC, code CH53489; DENV 4, NIBSC code TVP360) at a m.o.i. of 0.001.
For orientation: Plaques are areas of infected cells; plaque reduction assays count them against a control.

Data set [2] is described as follows: Toxicity in Vero cells (MTT assay and manual cell counting). Format: cell-based. To be noted: ‡ non toxic at 1000 μM, read-out: Ctox50. On the procedure: The toxicity of the beta hairpin peptides was assessed with the MTT (3-(4,5-dimethylthiazol-2-yl)-2,5-diphenyltetrazolium bromide, Invitrogen, USA) assay (Mosmann, T. (1983). J. Immunol. Methods 65, 55-63.), and by manual cell counting using a Neubauer chamber. Ninety-six well plates (Costar, USA) were seeded with 200 μL/well of a suspension containing Vero cells at 1×10^5 cells/mL and incubated until the monolayers reached approximately 90% confluence, typically for 18-24 h. After washing the cells twice with DMEM (Dulbecco's Modified Eagle Medium) medium, 50 μL/well were added of the peptide or additive dilutions to be evaluated (Triton ^X-100™ dissolved in PBS was used as positive toxicity control) and the plates were incubated at 37° C. under a 5% CO2 atmosphere for 2 or 24 h. Two different procedures were then employed to measure toxicity: • a) A 2 mg/mL solution of MTT in PBS was added (50 μL/well) and the plates were incubated for further 4 h at 37° C., 5% CO2. The medium was then removed, and 100 μL/well of DMSO were then added to solubilize formazan precipitates. Finally, the optical density (OD) of the supernatants at a wavelength of 540 nm was measured using a plate reader (Sensident Scan™, Merck, Germany). • b) The plates were washed with 200 μL/well of DMEM medium and then a trypsin solution (Sigma, USA) was added at 50 μL/well. After inactivating the trypsin by adding 150 μL/well of DMEM supplemented with 10% FBS, the cells were counted using the Trypan Blue (Gibco, USA) vital stain. The data were processed using the statistical software package Prism v5.3 (GraphPad, USA), using non-linear regression to fit them to a log10 (concentration) vs response curve.

The target of the next data set is T1, sLRP1-CIV (Homo sapiens, UniProt Q07954).
T1 construct: purchased R&D Systems, USA
The data set can be described thus: Biacore (SPR) binding to immobilized sLRP1-CIV. To be noted: peptides at 20 μM. On the procedure: The interaction of the beta hairpin peptides with soluble fragments of the LRP1 receptor was studied by Surface Plasmon Resonance (SPR), using a Biacore X unit. In this technique, one of the interaction partners to be studied is immobilized on the surface of a chip, and the other interaction partner is dissolved in a solution that runs through the measurement cell on top of the interaction surface, under conditions of controlled flow. The association and dissociation of interacting partners is measured in resonance units (RU) and plotted, as a function of time, on charts known as ‘sensorgrams’. SPR, therefore, enables the experimenter to obtain detailed information about the interaction without having to label either interaction partner.
In this example, one channel of a CM5 chip (GE Healthcare, USA) was used to immobilize protein sLRP1-CIV on its surface at high density (see Table 6) and recombinant Human Serum Albumin (rHSA, Sigma-Aldrich, USA) was immobilized on the other channel.
Although it was decided to immobilize sLRP1-CIV at high density because these conditions make easier the detection of any potential interactions with compounds whose molecular weight is lower than that of average proteins (such as the peptides this experiment is intended to study), it must be stressed that in high-density surfaces, mass transfer limitations and the possibility of multivalent binding make difficult the accurate determination of kinetic constants. Therefore, and in order to characterize in greater detail the sLRP1-CIV binding surface, different RAP dilutions (0.6-20 μM) were loaded, and RU were registered under conditions of interaction equilibria (250 sec, see FIG. 13B). […] The data also indicate that immobilized sLRP1-CIV faithfully reproduces the previously reported characteristics of the LRP1-RAP interaction.
The binding of beta hairpin peptides to sLRP1-CIV was studied by loading 20 μM dilutions in running buffer of the different peptide variants onto the sLRP1-CIV chip characterized above. The high strength of the resulting signals is consistent with the binding of aggregated, rather than monomeric forms of the peptides. Therefore, the observed variations between different peptides may reflect either differences in the affinity of unitary peptide interactions or differences in aggregation numbers and/or geometries that lead to variations in the number of peptide units able to simultaneously engage immobilized sLRP1-CIV molecules in a multivalent manner. […] The difference between peptides HDIII3CL2 and HDIII3CL is that the former has an additional C-terminal lysine and has, therefore, a stronger cationic character, which may facilitate additional electrostatic interactions with the negatively charged LRP1 receptor.
On the technique in general: In SPR one partner is held on a chip, and binding of the other changes the refractive index at the surface.

`CC[C@H](C)[C@@H]1NC(=O)CNC(=O)[C@H]([C@@H](C)CC)NC(=O)[C@H](C(C)C)NC(=O)[C@H]([C@@H](C)CC)NC(=O)[C@H](CC(N)=O)NC(=O)[C@H](CO)NC(=O)[C@@H](N)CSSC[C@@H](C(=O)N[C@@H](CCCCN)C(=O)N[C@@H](CCCCN)C(=O)N[C@@H](CCCCN)C(N)=O)NC(=O)[C@H](Cc2c[nH]c3ccccc23)NC(=O)[C@H](CC(N)=O)NC(=O)[C@H]([C@@H](C)CC)NC(=O)[C@H](CCCCN)NC(=O)[C@H](CC(C)C)NC(=O)[C@H](C)NC(=O)[C@H](CCCCN)NC(=O)[C@H](CC(=O)O)NC(=O)CNC1=O` [HDIII3CL2, reference compound] (H-CSNIVIGIGDKALKINWCKKK-NH2; disulfide 1-18): in data set [1], the IC50 was 20 µM. Moreover, the CC50 in data set [2] came out at 1000 µM.
`CC(C)[C@@H]1NC(=O)[C@H](CCCCN)NC(=O)[C@H](Cc2c[nH]c3ccccc23)NC(=O)[C@H](CCCCN)NC(=O)[C@H]2CCCN2C(=O)[C@H](CCCNC(=N)N)NC(=O)[C@H]([C@@H](C)O)NC(=O)[C@H](Cc2c[nH]c3ccccc23)NC(=O)[C@H](Cc2ccc(O)cc2)NC(=O)[C@H](C(C)C)NC(=O)[C@@H](N)CSSC[C@@H](C(=O)N[C@@H](CCCCN)C(=O)N[C@@H](CCCCN)C(=O)N[C@@H](CCCCN)C(N)=O)NC(=O)[C@H](Cc2c[nH]c3ccccc23)NC(=O)[C@H](CC(N)=O)NC1=O` [PHB2] (H-CVYWTR[dP]KWKVNWCKKK-NH2; disulfide 1-14): the IC50 in data set [1] is 12 µM. Further, in data set [2], the CC50 amounted to 85 µM.
As to `CC(C)[C@H](NC(=O)[C@H](CC(N)=O)NC(=O)[C@H](Cc1c[nH]c2ccccc12)NC(=O)[C@@H](NC(=O)[C@H](Cc1c[nH]c2ccccc12)NC(=O)[C@H](CCCCN)NC(=O)[C@H](CC(N)=O)NC(=O)[C@@H](CCCCN)NC(=O)[C@H](CCC(=O)O)NC(=O)[C@H](Cc1c[nH]c2ccccc12)NC(=O)[C@H](CCCCN)NC(=O)[C@H](Cc1c[nH]c2ccccc12)NC(=O)[C@H](CC(N)=O)NC(=O)[C@H](Cc1c[nH]c2ccccc12)NC(=O)[C@@H](N)Cc1ccccc1)[C@@H](C)O)C(=O)N[C@@H](CCC(=O)O)C(=O)NCC(=O)NCC(=O)N[C@@H](CCCCN)C(=O)N[C@@H](CCCCN)C(=O)N[C@@H](CCCCN)C(N)=O` [PHB5] (H-FWNWKWE[dK]NKWTWNVEGGKKK-NH2), in data set [1], the IC50 was determined as 17 µM. Further, in data set [2], the CC50 came out at 259 µM.
Take `CC(C)[C@H](NC(=O)[C@H](CC(N)=O)NC(=O)[C@H](Cc1c[nH]c2ccccc12)NC(=O)[C@@H](NC(=O)[C@H](Cc1c[nH]c2ccccc12)NC(=O)[C@H](CCCCN)NC(=O)[C@H](CC(N)=O)NC(=O)[C@H]1CCCN1C(=O)[C@H](CCC(=O)O)NC(=O)[C@H](Cc1c[nH]c2ccccc12)NC(=O)[C@H](CCCCN)NC(=O)[C@H](Cc1c[nH]c2ccccc12)NC(=O)[C@H](CC(N)=O)NC(=O)[C@H](Cc1c[nH]c2ccccc12)NC(=O)[C@@H](N)Cc1ccccc1)[C@@H](C)O)C(=O)N[C@@H](CCC(=O)O)C(=O)NCC(=O)NCC(=O)N[C@@H](CCCCN)C(=O)N[C@@H](CCCCN)C(=O)N[C@@H](CCCCN)C(N)=O` [PHB6] (H-FWNWKWE[dP]NKWTWNVEGGKKK-NH2): the IC50 in data set [1] worked out at 33 µM. Moreover, the CC50 in data set [2] came out at 411 µM.
Taken in the same sequence, the figures for `CC[C@H](C)[C@@H]1NC(=O)[C@H]([C@@H](C)O)NC(=O)[C@H](C(C)C)NC(=O)[C@H](CC(N)=O)NC(=O)[C@H](C(C)C)NC(=O)[C@@H](N)CSSC[C@@H](C(=O)N[C@@H](CCCCN)C(=O)N[C@@H](CCCCN)C(=O)N[C@@H](CCCCN)C(N)=O)NC(=O)[C@H](Cc2c[nH]c3ccccc23)NC(=O)[C@H](CC(N)=O)NC(=O)[C@H](Cc2ccc(O)cc2)NC(=O)[C@H](CCCCN)NC(=O)[C@H](CCCCN)NC(=O)CNC(=O)[C@H](CC(N)=O)NC1=O` [PHB7] (H-CVNVTINGKKYNWCKKK-NH2; disulfide 1-14) were 79 µM and 1910 µM.
As to `CC[C@H](C)[C@@H]1NC(=O)[C@H](Cc2ccccc2)NC(=O)[C@H](Cc2c[nH]c3ccccc23)NC(=O)[C@H](CC(N)=O)NC(=O)[C@H](Cc2ccc(O)cc2)NC(=O)[C@H](CCCCN)NC(=O)[C@H](CCCCN)NC(=O)CNC(=O)[C@H](CC(N)=O)NC(=O)[C@H]([C@@H](C)CC)NC(=O)[C@H]([C@@H](C)O)NC(=O)[C@H](C(C)C)NC(=O)[C@H](CC(N)=O)NC(=O)[C@H](C(C)C)NC(=O)[C@H](CCC(=O)O)NC(=O)[C@H]([C@@H](C)CC)NC(=O)[C@@H](N)CSSC[C@@H](C(=O)N[C@@H](CCCCN)C(=O)N[C@@H](CCCCN)C(=O)N[C@@H](CCCCN)C(N)=O)NC1=O` [PHB8] (H-CIEVNVTINGKKYNWFICKKK-NH2; disulfide 1-18), the concentration for half-maximal inhibition (IC50) in data set [1] is 15 µM. The CC50 in data set [2] was determined as 300 µM.
With `CC[C@H](C)[C@@H]1NC(=O)[C@H](Cc2ccccc2)NC(=O)[C@H](Cc2c[nH]c3ccccc23)NC(=O)[C@H](CC(N)=O)NC(=O)[C@H](Cc2ccc(O)cc2)NC(=O)[C@H](CCCCN)NC(=O)[C@H](CCCCN)NC(=O)CNC(=O)[C@H](CC(N)=O)NC(=O)[C@H]([C@@H](C)CC)NC(=O)[C@H]([C@@H](C)O)NC(=O)[C@H](C(C)C)NC(=O)[C@H](Cc2ccc(O)cc2)NC(=O)[C@H](C(C)C)NC(=O)[C@H](CCC(=O)O)NC(=O)[C@H]([C@@H](C)CC)NC(=O)[C@@H](N)CSSC[C@@H](C(=O)N[C@@H](CCCCN)C(=O)N[C@@H](CCCCN)C(=O)N[C@@H](CCCCN)C(N)=O)NC1=O` [PHB9] (H-CIEVYVTINGKKYNWFICKKK-NH2; disulfide 1-18), the half-maximal inhibitory concentration (IC50) in data set [1] came out at 7 µM. Also, the CC50 in data set [2] stood at 216 µM.
On to HDIII3CLC-, for which the “Binding to sLRP1-CIV by SPR, in words” value on sLRP1-CIV is “at most marginal interaction”.
Regarding HDIII3CLK-, the “Binding to sLRP1-CIV by SPR, in words” value on sLRP1-CIV is “detectable specific binding”.
With HDIII3CLW-, the “Binding to sLRP1-CIV by SPR, in words” value at sLRP1-CIV was “detectable specific binding”.

As a reminder, the IC50 is the midpoint of a concentration-inhibition curve.
